Experimental data as given in ChEMBL document CHEMBL1201862, “PubChem BioAssay data set” (2004).
The source made the active and inactive calls.

How the values were obtained:
[1] = target: T1, Long-chain-fatty-acid--AMP ligase FadD28 (Mycobacterium tuberculosis, UniProt P9WQ59); test: Fluorescence polarization aasay to screen for inhibitors that compete for the binding of FadD28 to a bisubstrate Measured in Biochemical System Using Plate Reader - 2147-01_Inhibitor_Dose_CherryPick_Activity.; assay type: functional, Mycobacterium tuberculosis H37Rv
T1 sequence (P9WQ59 whole entry): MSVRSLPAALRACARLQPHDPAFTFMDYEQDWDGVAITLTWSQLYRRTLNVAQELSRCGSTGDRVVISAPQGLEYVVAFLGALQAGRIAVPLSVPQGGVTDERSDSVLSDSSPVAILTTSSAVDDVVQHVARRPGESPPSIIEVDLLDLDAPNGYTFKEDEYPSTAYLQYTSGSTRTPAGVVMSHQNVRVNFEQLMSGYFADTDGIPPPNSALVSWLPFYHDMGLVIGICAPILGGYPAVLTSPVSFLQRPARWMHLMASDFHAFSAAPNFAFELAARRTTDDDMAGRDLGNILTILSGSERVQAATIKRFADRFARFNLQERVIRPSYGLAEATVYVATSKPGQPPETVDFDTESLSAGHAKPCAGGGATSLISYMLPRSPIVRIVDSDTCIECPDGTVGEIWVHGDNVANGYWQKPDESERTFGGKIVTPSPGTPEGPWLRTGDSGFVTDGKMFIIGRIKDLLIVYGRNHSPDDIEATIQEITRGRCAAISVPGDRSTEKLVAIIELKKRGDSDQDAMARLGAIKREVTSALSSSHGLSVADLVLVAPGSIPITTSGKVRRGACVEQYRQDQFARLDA

[2] = target: Cytochrome P450 2D6 (Homo sapiens, UniProt P10635);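 note: CYP2D6 member of a cytochrome P450 panel assay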
Chain of Cytochrome P450 2D6 (P10635 whole entry): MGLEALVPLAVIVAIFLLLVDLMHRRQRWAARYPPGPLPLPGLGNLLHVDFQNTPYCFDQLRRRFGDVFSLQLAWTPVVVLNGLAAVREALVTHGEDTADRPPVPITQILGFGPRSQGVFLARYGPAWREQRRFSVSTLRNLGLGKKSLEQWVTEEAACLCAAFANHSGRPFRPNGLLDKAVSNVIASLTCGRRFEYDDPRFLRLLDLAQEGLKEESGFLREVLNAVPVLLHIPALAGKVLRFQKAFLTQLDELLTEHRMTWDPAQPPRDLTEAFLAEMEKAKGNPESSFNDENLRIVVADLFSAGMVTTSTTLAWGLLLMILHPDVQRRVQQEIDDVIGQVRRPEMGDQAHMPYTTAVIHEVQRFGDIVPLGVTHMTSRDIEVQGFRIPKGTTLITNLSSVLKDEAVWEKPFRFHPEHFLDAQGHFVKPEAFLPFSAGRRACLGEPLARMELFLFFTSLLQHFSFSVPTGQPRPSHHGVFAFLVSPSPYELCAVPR

[3] = target: Cytochrome P450 2C19 (Homo sapiens, UniProt P33261); test: Cytochrome panel assay with activity outcomes. Panel member name: p450-cyp2c19 Compounds with AC50 equal or less than 10 uM are considered active; assay type: functional; conditions: read-out: AC50
[4] = activation of miR-122 Renilla sensor silencing – cell-based, Huh7 psiCHECK-miR122, Renilla luciferase, cherry-picked, dose response (AID 651956); assay type: functional;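 note: huh7 hepatoma cells stably carrying a psiCHECK-2 miR-122 sensor plasmid; renilla luciferase signal reporting endogenous miR-122 activity after 48 h compound exposure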
[5] = target: FAD-linked sulfhydryl oxidase ALR (Homo sapiens, UniProt P55789); test: ALR-catalysed DTT oxidation blockers – biochemical, H2O2 detection, luminescence, cherry-pick, dose response (AID 493248)
Chain of FAD-linked sulfhydryl oxidase ALR (P55789 whole entry): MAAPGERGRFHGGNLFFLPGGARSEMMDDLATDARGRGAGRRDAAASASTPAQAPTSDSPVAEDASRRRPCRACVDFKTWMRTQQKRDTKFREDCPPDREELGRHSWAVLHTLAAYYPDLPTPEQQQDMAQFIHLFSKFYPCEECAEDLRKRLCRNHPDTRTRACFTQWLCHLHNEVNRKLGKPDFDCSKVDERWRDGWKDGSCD

[6] = target: Beta-galactosidase (Escherichia coli, UniProt Q8VNN2); test: Dose response counterscreen for EBI2 assay utilizing the enzyme, b-galactosidase.; assay type: functional
[7] = system: CHO-K1; test: (§1) Counterscreen for antagonists of the orexin 1 receptor (OX1R; HCRTR1): Homogeneous time resolved fluorescence (HTRF)-based cell-based dose response assay to identify antagonists of the parental CHO-K1 cell line. [Related pubchem assays (depositor defined):AID434989, AID435008, AID463079, AID485270, AID492963, AID492964, AID492965, AID493232, AID504699, AID504701]; assay type: functional; conditions: Cricetulus griseus
[8] = target: T2, Orexin receptor type 2 (Homo sapiens, UniProt O43614); test: Counterscreen assay for antagonists of the orexin 1 receptor (OX1R; HCRTR1): Homogeneous Time Resolved Fluorescence (HTRF)-based cell-based dose response assay for antagonists of the orexin 2 receptor (OX2R; HCRTR2), run by assay provider.; assay type: functional
T2 sequence (O43614 whole entry): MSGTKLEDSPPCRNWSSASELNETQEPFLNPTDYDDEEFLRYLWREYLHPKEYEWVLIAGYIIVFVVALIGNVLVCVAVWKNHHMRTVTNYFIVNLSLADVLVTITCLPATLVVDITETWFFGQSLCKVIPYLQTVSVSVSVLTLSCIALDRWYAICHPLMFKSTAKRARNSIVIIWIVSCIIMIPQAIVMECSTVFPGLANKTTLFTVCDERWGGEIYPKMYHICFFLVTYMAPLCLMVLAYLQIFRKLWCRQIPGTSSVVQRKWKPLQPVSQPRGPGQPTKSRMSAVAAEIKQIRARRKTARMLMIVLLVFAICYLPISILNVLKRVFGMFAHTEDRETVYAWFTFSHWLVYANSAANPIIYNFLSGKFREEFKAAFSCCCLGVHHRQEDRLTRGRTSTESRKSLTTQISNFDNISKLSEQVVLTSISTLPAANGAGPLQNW

[9] = target: Peroxisome proliferator-activated receptor gamma/Nuclear receptor coactivator 1 (Homo sapiens, UniProt P37231); test: TR-FRET dose response biochemical High Throughput Screening assay for agonists of the steroid receptor coactivator 1 (SRC-1) recruitment by the peroxisome proliferator-activated receptor gamma (PPAR gamma): non-selective agonists. [Related pubchem assays (depositor defined):AID1300, AID1808, AID504735, AID631]; assay type: protein assay
Chain of Peroxisome proliferator-activated receptor gamma/Nuclear receptor coactivator 1 (P37231 whole entry): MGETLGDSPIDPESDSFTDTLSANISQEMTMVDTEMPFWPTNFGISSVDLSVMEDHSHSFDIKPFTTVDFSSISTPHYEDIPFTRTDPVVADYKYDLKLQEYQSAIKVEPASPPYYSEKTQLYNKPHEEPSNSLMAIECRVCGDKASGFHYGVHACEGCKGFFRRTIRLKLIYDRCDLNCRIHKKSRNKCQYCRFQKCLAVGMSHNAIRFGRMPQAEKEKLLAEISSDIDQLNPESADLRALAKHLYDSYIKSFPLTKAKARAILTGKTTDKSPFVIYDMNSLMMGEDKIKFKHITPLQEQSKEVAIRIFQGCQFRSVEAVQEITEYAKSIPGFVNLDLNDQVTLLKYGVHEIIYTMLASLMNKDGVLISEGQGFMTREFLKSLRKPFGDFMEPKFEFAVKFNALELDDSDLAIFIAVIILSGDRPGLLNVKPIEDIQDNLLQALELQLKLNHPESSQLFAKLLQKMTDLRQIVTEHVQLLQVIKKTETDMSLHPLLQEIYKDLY
Chain of Peroxisome proliferator-activated receptor gamma/Nuclear receptor coactivator 1 (Q15788 whole entry, further chain): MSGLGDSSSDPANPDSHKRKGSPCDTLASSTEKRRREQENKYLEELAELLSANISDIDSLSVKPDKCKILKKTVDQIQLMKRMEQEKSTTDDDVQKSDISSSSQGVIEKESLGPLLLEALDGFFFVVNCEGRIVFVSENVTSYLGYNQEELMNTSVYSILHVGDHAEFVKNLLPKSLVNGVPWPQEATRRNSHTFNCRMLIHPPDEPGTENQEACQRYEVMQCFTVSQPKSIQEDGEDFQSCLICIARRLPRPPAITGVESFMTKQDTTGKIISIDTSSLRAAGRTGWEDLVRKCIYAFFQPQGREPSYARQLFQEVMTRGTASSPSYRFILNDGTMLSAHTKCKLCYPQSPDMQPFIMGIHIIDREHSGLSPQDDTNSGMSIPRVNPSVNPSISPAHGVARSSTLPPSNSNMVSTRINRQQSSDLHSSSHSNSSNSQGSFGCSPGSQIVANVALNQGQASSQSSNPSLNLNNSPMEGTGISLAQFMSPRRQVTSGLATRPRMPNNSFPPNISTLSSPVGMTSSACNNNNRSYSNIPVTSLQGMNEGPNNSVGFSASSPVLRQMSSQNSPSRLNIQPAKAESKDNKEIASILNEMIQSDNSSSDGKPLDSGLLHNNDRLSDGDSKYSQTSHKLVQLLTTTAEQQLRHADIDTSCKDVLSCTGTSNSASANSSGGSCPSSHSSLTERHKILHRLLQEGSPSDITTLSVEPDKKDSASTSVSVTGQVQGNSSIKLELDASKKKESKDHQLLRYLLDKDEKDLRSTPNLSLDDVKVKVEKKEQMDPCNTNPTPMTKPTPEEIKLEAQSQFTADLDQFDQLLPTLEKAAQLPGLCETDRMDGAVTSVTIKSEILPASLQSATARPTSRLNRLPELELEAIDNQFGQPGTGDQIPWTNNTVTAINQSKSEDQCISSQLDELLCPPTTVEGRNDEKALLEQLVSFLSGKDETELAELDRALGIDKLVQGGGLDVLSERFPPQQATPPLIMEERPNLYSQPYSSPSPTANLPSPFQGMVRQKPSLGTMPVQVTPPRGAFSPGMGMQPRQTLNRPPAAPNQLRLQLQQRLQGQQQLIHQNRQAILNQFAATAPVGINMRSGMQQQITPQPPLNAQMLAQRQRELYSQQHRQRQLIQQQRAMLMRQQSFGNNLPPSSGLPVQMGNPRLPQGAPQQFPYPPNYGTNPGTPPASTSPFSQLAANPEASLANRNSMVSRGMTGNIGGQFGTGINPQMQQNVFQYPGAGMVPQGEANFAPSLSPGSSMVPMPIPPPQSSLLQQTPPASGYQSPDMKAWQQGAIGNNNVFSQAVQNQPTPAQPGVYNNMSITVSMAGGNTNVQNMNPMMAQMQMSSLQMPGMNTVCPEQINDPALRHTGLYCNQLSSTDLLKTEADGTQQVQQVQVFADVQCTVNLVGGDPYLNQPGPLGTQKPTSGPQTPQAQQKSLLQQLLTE

[10] = as §1, with “Fluorescence-based” for “Homogeneous time resolved fluorescence (HTRF)-based”, “cell-based high throughput” for “cell-based”, “CHO” for “CHO-K1”; assay type: functional
[11] = target: Peroxisome proliferator-activated receptor gamma/Nuclear receptor coactivator 2 (Homo sapiens, UniProt P37231); test: (§2) TR-FRET dose response biochemical High Throughput Screening assay for agonists of the steroid receptor coactivator 2 (SRC-2) recruitment by the peroxisome proliferator-activated receptor gamma (PPAR gamma): non-selective agonists. [Related pubchem assays: 1297, 1032 ]; assay type: functional
Chain of Peroxisome proliferator-activated receptor gamma/Nuclear receptor coactivator 2 (P37231 whole entry): as the sequence (P37231 whole entry) above
Chain of Peroxisome proliferator-activated receptor gamma/Nuclear receptor coactivator 2 (Q15596 whole entry, further chain): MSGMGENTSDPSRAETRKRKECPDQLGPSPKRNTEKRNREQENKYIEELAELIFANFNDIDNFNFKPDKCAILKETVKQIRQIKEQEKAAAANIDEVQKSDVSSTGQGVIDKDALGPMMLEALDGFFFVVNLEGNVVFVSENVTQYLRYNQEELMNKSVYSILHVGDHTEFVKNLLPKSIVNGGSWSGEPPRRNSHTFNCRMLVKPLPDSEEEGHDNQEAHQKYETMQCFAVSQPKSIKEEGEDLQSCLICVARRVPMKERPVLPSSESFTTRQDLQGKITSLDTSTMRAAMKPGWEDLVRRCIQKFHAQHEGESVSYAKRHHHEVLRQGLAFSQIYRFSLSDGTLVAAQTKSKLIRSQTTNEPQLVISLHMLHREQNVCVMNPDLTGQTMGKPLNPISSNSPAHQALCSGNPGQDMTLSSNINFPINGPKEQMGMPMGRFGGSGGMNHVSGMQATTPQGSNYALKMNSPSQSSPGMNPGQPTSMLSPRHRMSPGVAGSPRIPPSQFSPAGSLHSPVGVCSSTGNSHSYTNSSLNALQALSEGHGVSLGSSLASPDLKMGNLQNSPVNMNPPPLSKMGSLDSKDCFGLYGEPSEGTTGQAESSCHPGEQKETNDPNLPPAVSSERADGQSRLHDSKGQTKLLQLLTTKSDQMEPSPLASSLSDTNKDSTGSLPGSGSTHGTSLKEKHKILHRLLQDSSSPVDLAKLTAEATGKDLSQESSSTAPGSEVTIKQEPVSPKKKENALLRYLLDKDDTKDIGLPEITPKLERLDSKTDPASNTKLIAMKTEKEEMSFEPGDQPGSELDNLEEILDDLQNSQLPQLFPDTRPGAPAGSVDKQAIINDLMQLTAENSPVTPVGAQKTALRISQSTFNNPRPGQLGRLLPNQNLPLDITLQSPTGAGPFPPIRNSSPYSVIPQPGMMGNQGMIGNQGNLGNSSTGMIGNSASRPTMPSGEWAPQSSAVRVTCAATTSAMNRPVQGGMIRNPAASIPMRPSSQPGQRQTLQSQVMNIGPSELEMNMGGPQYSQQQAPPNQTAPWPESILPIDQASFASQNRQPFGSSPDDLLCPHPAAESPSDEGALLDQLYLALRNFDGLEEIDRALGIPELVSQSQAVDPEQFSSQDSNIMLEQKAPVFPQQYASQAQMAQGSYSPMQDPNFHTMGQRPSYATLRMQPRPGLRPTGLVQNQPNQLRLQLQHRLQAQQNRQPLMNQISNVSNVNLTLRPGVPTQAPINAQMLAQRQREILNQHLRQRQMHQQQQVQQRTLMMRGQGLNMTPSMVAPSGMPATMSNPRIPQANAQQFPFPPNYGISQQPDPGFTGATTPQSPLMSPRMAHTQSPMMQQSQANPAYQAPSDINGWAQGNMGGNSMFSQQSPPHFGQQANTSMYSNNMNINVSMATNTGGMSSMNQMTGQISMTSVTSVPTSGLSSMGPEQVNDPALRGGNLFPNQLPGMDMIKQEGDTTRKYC

[12] = target: Peroxisome proliferator-activated receptor gamma/Nuclear receptor coactivator 3 (Homo sapiens, UniProt P37231); test: as §2, with “3 (SRC-3)” for “2 (SRC-2)”, “1301 (Confirmation screen.), 1048 (Primary screen.)]” for “1297, 1032 ]”; assay type: functional
[13] = target: T3, Orexin/Hypocretin receptor type 1 (Homo sapiens, UniProt O43613); test: Homogeneous Time Resolved Fluorescence (HTRF)-based cell-based high throughput dose response assay for antagonists of the orexin 1 receptor (OX1R; HCRTR1). [Related pubchem assays (depositor defined):AID434989, AID435008, AID463079, AID485270, AID492963, AID492964, AID492965, AID493232, AID504717, AID504718]; assay type: functional
T3 sequence (O43613 whole entry): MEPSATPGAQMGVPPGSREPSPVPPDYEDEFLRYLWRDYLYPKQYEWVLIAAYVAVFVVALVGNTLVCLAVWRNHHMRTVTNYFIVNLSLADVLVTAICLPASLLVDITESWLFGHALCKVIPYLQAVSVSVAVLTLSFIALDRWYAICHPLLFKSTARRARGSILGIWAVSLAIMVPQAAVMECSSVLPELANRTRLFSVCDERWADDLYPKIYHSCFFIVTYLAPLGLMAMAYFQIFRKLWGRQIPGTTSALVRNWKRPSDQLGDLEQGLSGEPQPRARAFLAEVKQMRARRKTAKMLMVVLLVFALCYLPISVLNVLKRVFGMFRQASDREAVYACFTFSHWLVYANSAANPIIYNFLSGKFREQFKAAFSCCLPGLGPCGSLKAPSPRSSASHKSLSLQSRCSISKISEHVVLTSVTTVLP

[14] = target: T3, Orexin/Hypocretin receptor type 1; test: Fluorescence-based cell-based high throughput dose response assay for antagonists of the orexin 1 receptor (OX1R; HCRTR1). [Related pubchem assays (depositor defined):AID434989, AID435008, AID463079, AID485270, AID492963, AID492964, AID492965, AID493232, AID504717, AID504718]; assay type: functional
[15] = target: T2, Orexin receptor type 2; test: Counterscreen assay for antagonists of the orexin 1 receptor (OX1R; HCRTR1): Fluorescence-based cell-based dose response assay for antagonists of the orexin 2 receptor (OX2R; HCRTR2), run by assay provider.; assay type: functional
[16] = Trypanosoma cruzi growth suppression in host cells – NIH3T3 host cells, beta-gal luminescence, confirmation (AID 2044); assay type: functional, cell-based;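 note: intracellular parasites grown in NIH/3T3 mouse fibroblasts as host cells; luminescent beta-galactosidase reporter signal from transgenic T. cruzi replicating inside host cells; inhibitors lower the luminescence signal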
[17] = Luminescence Cell-Based Dose Retest to Confirm Inhibitors of Cancer Stem Cells. [Related pubchem assays (depositor defined):AID2717, AID2721]; assay type: functional; conditions: Homo sapiens
[18] = target: Arf-GAP with SH3 domain, ANK repeat and PH domain-containing protein 1 (Homo sapiens, UniProt Q9ULH1); assay type: functional;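 note: biochemical fluorescence polarization dose–response screen measuring inhibition of ASAP1; ASAP1 GAP domain stimulating GTP hydrolysis by truncated human ARF1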
[19] = NIH3T3 cell viability loss – ATP luminescence, mouse fibroblasts, counter-screen, dose response (AID 2010); assay type: functional, cell-based;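 note: cells exposed to compound for about 90 hours before reading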
[20] = target: T4, Ubiquitin-conjugating enzyme E2 N (Homo sapiens, UniProt P61088); assay type: functional;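 note: Dose-response confirmation in a TR-FRET assay detecting UBC13-driven polyubiquitin chain formation, inhibition measured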
T4 sequence (P61088 whole entry): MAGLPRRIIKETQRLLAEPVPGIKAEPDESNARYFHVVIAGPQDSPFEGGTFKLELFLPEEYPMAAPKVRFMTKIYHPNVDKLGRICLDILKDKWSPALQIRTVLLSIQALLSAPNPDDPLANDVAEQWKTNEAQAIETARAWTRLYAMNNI

[21] = system: INS1; test: INS-1E survival protection against cytokine death – cell-based, luminescence, retest, dose response (AID 449756); assay type: functional; conditions: Rattus norvegicus;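 note: cell death triggered by IL-1 beta plus TNF-alpha plus IFN-gamma mixture; protective hits raise ATP signal compared with cytokine alone wells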

With `COc1ccc(C(=O)NCc2ccc(C)cc2)cc1S(=O)(=O)N1CCOCC1` the AC50 [1] was 64.8 µM (active).

In the case of `OCc1ccc(-c2nn(Cc3ccccc3)c3ccccc23)o1`, the AC50 [2] was 39.8 µM (inconclusive), the AC50 [3] was 10 µM (inconclusive) and the AC50 [4] was 0.547 µM (active). For the same compound, the AC50 [5] was 10 µM (active).

For `CN1CCN(C(=O)/C=C/c2ccc(Cl)cc2)CC1`, the IC50 [6] was > 80 µM (inactive).

For `Cc1cc(SCC(=O)c2ccc3c(c2)OCO3)nc2ccccc12`, the IC50 [7] was > 66.2 µM (inactive), the IC50 [8] was 11.2 µM (inactive) and the EC50 [9] was 10.2 µM (inactive). The IC50 [10] was > 49.7 µM (inactive), the EC50 [11] was 10.4 µM (not active) and the EC50 [12] was > 79.4 µM (not active). For the same compound, the IC50 [13] was 3.34 µM (active), the IC50 [14] was 18.8 µM (inactive) and the IC50 [15] was 14.1 µM (inactive).

In the case of `CN1C(=O)c2cc(NC(=O)c3cccc(F)c3)ccc2OC[C@H]2O[C@H](CC(=O)O)CC[C@H]21`, the AC50 [4] was 0.366 µM (active).

For `OCCNc1nc(Nc2ccc(Cl)c(Cl)c2)nc2ccccc12`, the EC50 [16] was 0.464 µM (active), the AC50 [17] was 2.43 µM (active) and the IC50 [18] was 55.3 µM (inactive). The EC50 [19] was > 30 µM (not active), the IC50 [20] was > 20 µM (inactive) and the AC50 [21] was 13.4 µM (active).
